From PubChem BioAssay AID1963447 (Molecular Pharmacology Branch, DTP, NCI, 2024)

System: 885512-296-R-J2-PDC complex spheroid growth, % test/control
Experiment: Anticancer human tumor 885512-296-R-J2-PDC patient-derived breast carcinoma cell line growth inhibition [Asc]
Conditions: for IC50: curve of first compound; for viability, T/C: stronger effect = lower value
Method in brief: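 Tumor cells were grown as multicellular spheroids with stromal HUVEC and mesenchymal stem cells and treated singly or in combination. Concentrations fell in half-log steps from the clinical Cmax, or from 10 microM where none was known.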

[1] = second compound 0.1 µM, first compound 0.0316 µM
[2] = second compound 0.1 µM, first compound 0.1 µM
[3] = second compound 0.1 µM, first compound 0.316 µM
[4] = second compound 0.1 µM, first compound 1 µM
[5] = second compound 0.1 µM, first compound 3.16 µM
[6] = second compound 0.1 µM, first compound 10 µM
[7] = second compound 0.316 µM, first compound 0.0316 µM
[8] = second compound 0.316 µM, first compound 0.1 µM
[9] = second compound 0.316 µM, first compound 0.316 µM
[10] = second compound 0.316 µM, first compound 1 µM
[11] = second compound 0.316 µM, first compound 3.16 µM
[12] = second compound 0.316 µM, first compound 10 µM
[13] = second compound 1 µM, first compound 0.0316 µM
[14] = second compound 1 µM, first compound 0.1 µM
[15] = second compound 1 µM, first compound 0.316 µM
[16] = second compound 1 µM, first compound 1 µM
[17] = second compound 1 µM, first compound 3.16 µM
[18] = second compound 1 µM, first compound 10 µM
[19] = second compound 3.16 µM, first compound 0.0316 µM
[20] = second compound 3.16 µM, first compound 0.1 µM
[21] = second compound 3.16 µM, first compound 0.316 µM
[22] = second compound 3.16 µM, first compound 1 µM
[23] = second compound 3.16 µM, first compound 3.16 µM
[24] = second compound 3.16 µM, first compound 10 µM
[25] = second compound 10 µM, first compound 0.0316 µM
[26] = second compound 10 µM, first compound 0.1 µM
[27] = second compound 10 µM, first compound 0.316 µM
[28] = second compound 10 µM, first compound 1 µM
[29] = second compound 10 µM, first compound 3.16 µM
[30] = second compound 10 µM, first compound 10 µM
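Note: spheroids exposed to compounds for seven days.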
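Throughout, for viability, T/C: 100% = DMSO vehicle control wells.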

With C=C(F)C(=O)N1CCN(c2nc(OCC3CCCN3C)nc3c2CCN(c2cccc4cccc(Cl)c24)C3)CC1CC#N (stereo not given) + Cc1c(S(C)(=O)=O)c(-c2cc(F)cc(N3CCN(c4ccc(NS(=O)(=O)c5ccc(NC(CCN6CCC(C(=O)OCCCP(=O)(O)O)CC6)CSc6ccccc6)c(S(=O)(=O)C(F)(F)F)c5)cc4)CC3)c2)c(-c2ccc(Cl)cc2)n1C(C)C the IC50 (second compound 0.1 µM) was 1870 nM, the IC50 (second compound 0.316 µM) was 1920 nM and the IC50 (second compound 1 µM) was 1910 nM. The IC50 (second compound 3.16 µM) was 1820 nM, the IC50 (second compound 10 µM) was 2140 nM and the viability, T/C [1] was 85.7%. For the same molecule, the viability, T/C [2] was 91%, the viability, T/C [3] was 93.2% and the viability, T/C [4] was 85.9%. The viability, T/C [5] was 19.7%, the viability, T/C [6] was 0.11% and the viability, T/C [7] was 76.3%. The viability, T/C [8] was 96.2%, the viability, T/C [9] was 95% and the viability, T/C [10] was 90.5%. The viability, T/C [11] was 19.7%, the viability, T/C [12] was 0.13% and the viability, T/C [13] was 83.2%. For the same molecule, the viability, T/C [14] was 84.9%, the viability, T/C [15] was 97.1% and the viability, T/C [16] was 91.5%. It also gave a viability, T/C [17] of 19.5%, a viability, T/C [18] of 0.12% and a viability, T/C [19] of 101%. The viability, T/C [20] was 90.3%, the viability, T/C [21] was 92.1% and the viability, T/C [22] was 82.6%. The viability, T/C [23] was 20.3%, the viability, T/C [24] was 0.12% and the viability, T/C [25] was 115%. For the same molecule, the viability, T/C [26] was 107%, the viability, T/C [27] was 96.5% and the viability, T/C [28] was 100%. It also gave a viability, T/C [29] of 24.4% and a viability, T/C [30] of 0.18%.
C=CC(=O)N1CCN(c2nc(=O)n(-c3c(C)ccnc3C(C)C)c3nc(-c4c(O)cccc4F)c(F)cc23)C(C)C1 (stereo not given) + Cc1c(S(C)(=O)=O)c(-c2cc(F)cc(N3CCN(c4ccc(NS(=O)(=O)c5ccc(NC(CCN6CCC(C(=O)OCCCP(=O)(O)O)CC6)CSc6ccccc6)c(S(=O)(=O)C(F)(F)F)c5)cc4)CC3)c2)c(-c2ccc(Cl)cc2)n1C(C)C gave an IC50 (second compound 0.1 µM) greater than 10000 nM, an IC50 (second compound 0.316 µM) greater than 10000 nM and an IC50 (second compound 1 µM) greater than 10000 nM. The IC50 (second compound 3.16 µM) was greater than 10000 nM, the IC50 (second compound 10 µM) was greater than 10000 nM and the viability, T/C [1] was 85.3%. It also gave a viability, T/C [2] of 80.7%, a viability, T/C [3] of 92.2% and a viability, T/C [4] of 83.6%. For the same molecule, the viability, T/C [5] was 87.6%, the viability, T/C [6] was 55.8% and the viability, T/C [7] was 94.3%. The viability, T/C [8] was 87.2%, the viability, T/C [9] was 86.8% and the viability, T/C [10] was 81.2%. For the same molecule, the viability, T/C [11] was 101%, the viability, T/C [12] was 74.7% and the viability, T/C [13] was 80.6%. It also gave a viability, T/C [14] of 73.5%, a viability, T/C [15] of 93.3% and a viability, T/C [16] of 104%. The viability, T/C [17] was 85.7%, the viability, T/C [18] was 62% and the viability, T/C [19] was 98.7%. The viability, T/C [20] was 90.3%, the viability, T/C [21] was 109% and the viability, T/C [22] was 106%. For the same molecule, the viability, T/C [23] was 90.2%, the viability, T/C [24] was 68.3% and the viability, T/C [25] was 119%. For the same molecule, the viability, T/C [26] was 117%, the viability, T/C [27] was 114% and the viability, T/C [28] was 114%. The viability, T/C [29] was 98.8% and the viability, T/C [30] was 71.6%.
Work on CCN1C(C(=O)NC23CCC(C(=O)O)(CC2)CC3)C(c2cccc(Cl)c2F)C2(C(=O)Nc3cc(Cl)ccc32)C12CCCCC2 (stereo not given) + Cc1c(S(C)(=O)=O)c(-c2cc(F)cc(N3CCN(c4ccc(NS(=O)(=O)c5ccc(NC(CCN6CCC(C(=O)OCCCP(=O)(O)O)CC6)CSc6ccccc6)c(S(=O)(=O)C(F)(F)F)c5)cc4)CC3)c2)c(-c2ccc(Cl)cc2)n1C(C)C yielded an IC50 (second compound 0.1 µM) of 2460 nM, an IC50 (second compound 0.316 µM) of 1820 nM and an IC50 (second compound 1 µM) of 2370 nM. The IC50 (second compound 3.16 µM) was greater than 3000 nM, the IC50 (second compound 10 µM) was greater than 3000 nM and the viability, T/C (second compound 0.1 µM, first compound 0.00949 µM) was 90.8%. For the same molecule, the viability, T/C (second compound 0.1 µM, first compound 0.03 µM) was 96.3%, the viability, T/C (second compound 0.1 µM, first compound 0.0949 µM) was 99.4% and the viability, T/C (second compound 0.1 µM, first compound 0.3 µM) was 72.8%. It also gave a viability, T/C (second compound 0.1 µM, first compound 0.949 µM) of 73.8%, a viability, T/C (second compound 0.1 µM, first compound 3 µM) of 45.1% and a viability, T/C (second compound 0.316 µM, first compound 0.00949 µM) of 86.7%. It also gave a viability, T/C (second compound 0.316 µM, first compound 0.03 µM) of 101%, a viability, T/C (second compound 0.316 µM, first compound 0.0949 µM) of 99.6% and a viability, T/C (second compound 0.316 µM, first compound 0.3 µM) of 80.8%. It also gave a viability, T/C (second compound 0.316 µM, first compound 0.949 µM) of 64.4%, a viability, T/C (second compound 0.316 µM, first compound 3 µM) of 39.8% and a viability, T/C (second compound 1 µM, first compound 0.00949 µM) of 103%. For the same molecule, the viability, T/C (second compound 1 µM, first compound 0.03 µM) was 79.3%, the viability, T/C (second compound 1 µM, first compound 0.0949 µM) was 85% and the viability, T/C (second compound 1 µM, first compound 0.3 µM) was 71.9%. For the same molecule, the viability, T/C (second compound 1 µM, first compound 0.949 µM) was 67.1%, the viability, T/C (second compound 1 µM, first compound 3 µM) was 42% and the viability, T/C (second compound 3.16 µM, first compound 0.00949 µM) was 109%. For the same molecule, the viability, T/C (second compound 3.16 µM, first compound 0.03 µM) was 100%, the viability, T/C (second compound 3.16 µM, first compound 0.0949 µM) was 98.6% and the viability, T/C (second compound 3.16 µM, first compound 0.3 µM) was 95.4%. The viability, T/C (second compound 3.16 µM, first compound 0.949 µM) was 78%, the viability, T/C (second compound 3.16 µM, first compound 3 µM) was 52.4% and the viability, T/C (second compound 10 µM, first compound 0.00949 µM) was 129%. The viability, T/C (second compound 10 µM, first compound 0.03 µM) was 101%, the viability, T/C (second compound 10 µM, first compound 0.0949 µM) was 119% and the viability, T/C (second compound 10 µM, first compound 0.3 µM) was 124%. It also gave a viability, T/C (second compound 10 µM, first compound 0.949 µM) of 112% and a viability, T/C (second compound 10 µM, first compound 3 µM) of 79.6%.
In the case of CNC(C)C(=O)NC1CN(S(=O)(=O)c2cccc(S(=O)(=O)N3CCC4CCC(C(=O)NC(c5ccccc5)c5ccccc5)N4C(=O)C(NC(=O)C(C)NC)C3)c2)CCC2CCC(C(=O)NC(c3ccccc3)c3ccccc3)N2C1=O (stereo not given) + Cc1c(S(C)(=O)=O)c(-c2cc(F)cc(N3CCN(c4ccc(NS(=O)(=O)c5ccc(NC(CCN6CCC(C(=O)OCCCP(=O)(O)O)CC6)CSc6ccccc6)c(S(=O)(=O)C(F)(F)F)c5)cc4)CC3)c2)c(-c2ccc(Cl)cc2)n1C(C)C, the IC50 (second compound 0.1 µM) is reported as greater than 1000 nM, the IC50 (second compound 0.316 µM) is reported as greater than 1000 nM and the IC50 (second compound 1 µM) is reported as greater than 1000 nM. It also gave an IC50 (second compound 3.16 µM) greater than 1000 nM, an IC50 (second compound 10 µM) greater than 1000 nM and a viability, T/C (second compound 0.1 µM, first compound 0.00316 µM) of 78.5%. For the same molecule, the viability, T/C (second compound 0.1 µM, first compound 0.01 µM) was 89.6%, the viability, T/C [1] was 89.2% and the viability, T/C [2] was 101%. For the same molecule, the viability, T/C [3] was 116%, the viability, T/C [4] was 88.8% and the viability, T/C (second compound 0.316 µM, first compound 0.00316 µM) was 80.1%. The viability, T/C (second compound 0.316 µM, first compound 0.01 µM) was 92.6%, the viability, T/C [7] was 107% and the viability, T/C [8] was 93.5%. It also gave a viability, T/C [9] of 106%, a viability, T/C [10] of 109% and a viability, T/C (second compound 1 µM, first compound 0.00316 µM) of 90%. The viability, T/C (second compound 1 µM, first compound 0.01 µM) was 100%, the viability, T/C [13] was 112% and the viability, T/C [14] was 102%. It also gave a viability, T/C [15] of 107%, a viability, T/C [16] of 109% and a viability, T/C (second compound 3.16 µM, first compound 0.00316 µM) of 94.7%. For the same molecule, the viability, T/C (second compound 3.16 µM, first compound 0.01 µM) was 92.7%, the viability, T/C [19] was 99.2% and the viability, T/C [20] was 102%. The viability, T/C [21] was 112%, the viability, T/C [22] was 95.2% and the viability, T/C (second compound 10 µM, first compound 0.00316 µM) was 112%. For the same molecule, the viability, T/C (second compound 10 µM, first compound 0.01 µM) was 103%, the viability, T/C [25] was 91.5% and the viability, T/C [26] was 98%. The viability, T/C [27] was 100% and the viability, T/C [28] was 105%.
